Reference: US11395857B2, “Radiolabeled melanocortin 1 receptor-specific alpha-melanocyte-stimulating hormone analogues for imaging or therapy” (PROVINCIAL HEALTH SERVICES AUTHORITY, priority 2018, dated 2022)
Read-outs that look alike come from different tables or passages of the source.

Legend:
[1] = test system: B16F10 mouse melanoma; experiment: Biodistribution of 177Lu-labeled αMSH analogues in mice bearing B16F10 mouse melanoma; assay type: in vivo, C57BL/6J mice; settings: C57BL/6J mice, B16F10 melanoma
Description: (§1) The B16-F10 mouse melanoma cells were cultured and inoculated in mice as described in Example 1.
(§2) For biodistribution studies, approximately 1-2 MBq of ^177Lu-labeled αMSH analogues via tail vein under anesthesia. At 1, 4, 24, and 120 h p.i., the mice were euthanized by CO2 inhalation. Organs/tissues were harvested and the radioactivity was measured as described in Example 1.

[2] = as above; assay type: in vivo, C57BL/6J mice; settings: mouse, iv, total radioactivity, C57BL/6J mice, B16F10 melanoma
Description: as §1, §2

Biodistribution, B16F10 tumour ([1]; 1 h p.i.): 4.49 ± 1.89 % ID/g
Biodistribution, B16F10 tumour ([1]; 4 h p.i.): 4.42 ± 0.64 % ID/g
Biodistribution, B16F10 tumour ([1]; 24 h p.i.): 2.04 ± 0.46 % ID/g
Biodistribution, Brain ([1]; 24 h p.i.): 0.00 ± 0.00 % ID/g
Biodistribution, B16F10 tumour ([1]; 120 h p.i.): 0.49 ± 0.30 % ID/g
Biodistribution, Blood ([1]; 120 h p.i.): 0.00 ± 0.00 % ID/g
Biodistribution, Brain ([1]; 120 h p.i.): 0.00 ± 0.00 % ID/g
Biodistribution, Seminal glands ([1]; 120 h p.i.): 0.00 ± 0.00 % ID/g
tissue uptake at 1 h ([2]; male, seminal glands, 1 h p.i., read-out: Biodistribution, Seminal glands): 0.06 ± 0.02 %ID/g
tissue uptake at 4 h ([2]; male, seminal glands, 4 h p.i., read-out: Biodistribution, Seminal glands): 0.02 %ID/g
tissue uptake at 24 h ([2]; male, seminal glands, 24 h p.i., read-out: Biodistribution, Seminal glands): 0.01 %ID/g
tissue uptake at 1 h ([2]; male, testes, 1 h p.i., read-out: Biodistribution, Testes): 0.13 ± 0.02 %ID/g
tissue uptake at 4 h ([2]; male, testes, 4 h p.i., read-out: Biodistribution, Testes): 0.03 %ID/g
tissue uptake at 24 h ([2]; male, testes, 24 h p.i., read-out: Biodistribution, Testes): 0.03 %ID/g
tissue uptake at 120 h ([2]; male, testes, 120 h p.i., read-out: Biodistribution, Testes): 0.02 ± 0.01 %ID/g
tissue uptake at 1 h ([2]; adrenal glands, 1 h p.i., read-out: Biodistribution, Adrenal glands): 0.39 ± 0.13 %ID/g
tissue uptake at 4 h ([2]; adrenal glands, 4 h p.i., read-out: Biodistribution, Adrenal glands): 0.19 ± 0.06 %ID/g
tissue uptake at 24 h ([2]; adrenal glands, 24 h p.i., read-out: Biodistribution, Adrenal glands): 0.1 ± 0.04 %ID/g
tissue uptake at 120 h ([2]; adrenal glands, 120 h p.i., read-out: Biodistribution, Adrenal glands): 0.03 ± 0.03 %ID/g
tissue uptake at 1 h ([2]; blood, 1 h p.i., read-out: Biodistribution, Blood): 0.48 ± 0.22 %ID/g
tissue uptake at 4 h ([2]; blood, 4 h p.i., read-out: Biodistribution, Blood): 0.05 ± 0.01 %ID/g
tissue uptake at 24 h ([2]; blood, 24 h p.i., read-out: Biodistribution, Blood): 0.01 %ID/g
tissue uptake at 1 h ([2]; bone, 1 h p.i., read-out: Biodistribution, Bone): 0.13 ± 0.03 %ID/g
tissue uptake at 4 h ([2]; bone, 4 h p.i., read-out: Biodistribution, Bone): 0.06 ± 0.02 %ID/g
tissue uptake at 24 h ([2]; bone, 24 h p.i., read-out: Biodistribution, Bone): 0.04 ± 0.01 %ID/g
tissue uptake at 120 h ([2]; bone, 120 h p.i., read-out: Biodistribution, Bone): 0.02 ± 0.01 %ID/g
tissue uptake at 1 h ([2]; brain, 1 h p.i., read-out: Biodistribution, Brain): 0.02 %ID/g
tissue uptake at 4 h ([2]; brain, 4 h p.i., read-out: Biodistribution, Brain): 0.01 %ID/g
tissue uptake at 1 h ([2]; fat, 1 h p.i., read-out: Biodistribution, Fat): 0.06 ± 0.02 %ID/g
tissue uptake at 4 h ([2]; fat, 4 h p.i., read-out: Biodistribution, Fat): 0.01 %ID/g
tissue uptake at 24 h ([2]; fat, 24 h p.i., read-out: Biodistribution, Fat): 0.01 %ID/g
tissue uptake at 120 h ([2]; fat, 120 h p.i., read-out: Biodistribution, Fat): 0.01 %ID/g
tissue uptake at 1 h ([2]; heart, 1 h p.i., read-out: Biodistribution, Heart): 0.17 ± 0.06 %ID/g
tissue uptake at 4 h ([2]; heart, 4 h p.i., read-out: Biodistribution, Heart): 0.04 ± 0.01 %ID/g
tissue uptake at 24 h ([2]; heart, 24 h p.i., read-out: Biodistribution, Heart): 0.03 %ID/g
tissue uptake at 120 h ([2]; heart, 120 h p.i., read-out: Biodistribution, Heart): 0.02 %ID/g
tissue uptake at 1 h ([2]; intestine, 1 h p.i., read-out: Biodistribution, Intestine): 0.25 ± 0.03 %ID/g
tissue uptake at 4 h ([2]; intestine, 4 h p.i., read-out: Biodistribution, Intestine): 0.12 ± 0.06 %ID/g
tissue uptake at 24 h ([2]; intestine, 24 h p.i., read-out: Biodistribution, Intestine): 0.23 ± 0.28 %ID/g
tissue uptake at 120 h ([2]; intestine, 120 h p.i., read-out: Biodistribution, Intestine): 0.12 ± 0.16 %ID/g
tissue uptake at 1 h ([2]; kidneys, 1 h p.i., read-out: Biodistribution, Kidneys): 4.15 ± 0.99 %ID/g
tissue uptake at 4 h ([2]; kidneys, 4 h p.i., read-out: Biodistribution, Kidneys): 4.32 ± 2.06 %ID/g
tissue uptake at 24 h ([2]; kidneys, 24 h p.i., read-out: Biodistribution, Kidneys): 1.61 ± 0.29 %ID/g
tissue uptake at 120 h ([2]; kidneys, 120 h p.i., read-out: Biodistribution, Kidneys): 0.5 ± 0.02 %ID/g
tissue uptake at 1 h ([2]; liver, 1 h p.i., read-out: Biodistribution, Liver): 0.41 ± 0.11 %ID/g
tissue uptake at 4 h ([2]; liver, 4 h p.i., read-out: Biodistribution, Liver): 0.34 ± 0.1 %ID/g
tissue uptake at 24 h ([2]; liver, 24 h p.i., read-out: Biodistribution, Liver): 0.32 ± 0.13 %ID/g
tissue uptake at 120 h ([2]; liver, 120 h p.i., read-out: Biodistribution, Liver): 0.19 ± 0.02 %ID/g
tissue uptake at 1 h ([2]; lungs, 1 h p.i., read-out: Biodistribution, Lungs): 0.54 ± 0.2 %ID/g
tissue uptake at 4 h ([2]; lungs, 4 h p.i., read-out: Biodistribution, Lungs): 0.17 ± 0.06 %ID/g
tissue uptake at 24 h ([2]; lungs, 24 h p.i., read-out: Biodistribution, Lungs): 0.07 ± 0.02 %ID/g
tissue uptake at 120 h ([2]; lungs, 120 h p.i., read-out: Biodistribution, Lungs): 0.04 ± 0.01 %ID/g
tissue uptake at 1 h ([2]; muscle, 1 h p.i., read-out: Biodistribution, Muscle): 0.1 ± 0.04 %ID/g
tissue uptake at 4 h ([2]; muscle, 4 h p.i., read-out: Biodistribution, Muscle): 0.02 %ID/g
tissue uptake at 24 h ([2]; muscle, 24 h p.i., read-out: Biodistribution, Muscle): 0.01 %ID/g
tissue uptake at 120 h ([2]; muscle, 120 h p.i., read-out: Biodistribution, Muscle): 0.01 %ID/g
tissue uptake at 1 h ([2]; pancreas, 1 h p.i., read-out: Biodistribution, Pancreas): 0.13 ± 0.05 %ID/g
tissue uptake at 4 h ([2]; pancreas, 4 h p.i., read-out: Biodistribution, Pancreas): 0.03 ± 0.01 %ID/g
tissue uptake at 24 h ([2]; pancreas, 24 h p.i., read-out: Biodistribution, Pancreas): 0.03 %ID/g
tissue uptake at 120 h ([2]; pancreas, 120 h p.i., read-out: Biodistribution, Pancreas): 0.02 %ID/g
tissue uptake at 1 h ([2]; spleen, 1 h p.i., read-out: Biodistribution, Spleen): 0.24 ± 0.08 %ID/g
tissue uptake at 4 h ([2]; spleen, 4 h p.i., read-out: Biodistribution, Spleen): 0.13 ± 0.04 %ID/g
tissue uptake at 24 h ([2]; spleen, 24 h p.i., read-out: Biodistribution, Spleen): 0.12 ± 0.02 %ID/g
tissue uptake at 120 h ([2]; spleen, 120 h p.i., read-out: Biodistribution, Spleen): 0.07 ± 0.01 %ID/g
tissue uptake at 1 h ([2]; stomach, 1 h p.i., read-out: Biodistribution, Stomach): 0.13 ± 0.02 %ID/g
tissue uptake at 4 h ([2]; stomach, 4 h p.i., read-out: Biodistribution, Stomach): 0.59 ± 1.14 %ID/g
tissue uptake at 24 h ([2]; stomach, 24 h p.i., read-out: Biodistribution, Stomach): 0.53 ± 0.48 %ID/g
tissue uptake at 120 h ([2]; stomach, 120 h p.i., read-out: Biodistribution, Stomach): 0.12 ± 0.16 %ID/g
tissue uptake at 1 h ([2]; thyroid, 1 h p.i., read-out: Biodistribution, Thyroid): 0.22 ± 0.09 %ID/g
tissue uptake at 4 h ([2]; thyroid, 4 h p.i., read-out: Biodistribution, Thyroid): 0.07 ± 0.01 %ID/g
tissue uptake at 24 h ([2]; thyroid, 24 h p.i., read-out: Biodistribution, Thyroid): 0.06 ± 0.01 %ID/g
tissue uptake at 120 h ([2]; thyroid, 120 h p.i., read-out: Biodistribution, Thyroid): 0.05 ± 0.01 %ID/g
excreta dose per gram or mL at 1 h ([2]; urine, 1 h p.i.): 227 ± 115 %ID/g
excreta dose per gram or mL at 4 h ([2]; urine, 4 h p.i.): 49.1 ± 39.7 %ID/g
excreta dose per gram or mL at 24 h ([2]; urine, 24 h p.i.): 0.46 ± 0.31 %ID/g
excreta dose per gram or mL at 120 h ([2]; urine, 120 h p.i.): 0.09 ± 0.06 %ID/g
SMILES: CCCC[C@H](NC(=O)CN1CCC(NC(=O)CN2CCN(CC(=O)O)CCN(CC(=O)O)CCN(CC(=O)O)CC2)CC1)C(=O)N[C@H]1CC(=O)NCCCC[C@@H](C(N)=O)N(C)C(=O)[C@H](Cc2c[nH]c3ccccc23)N(C)C(=O)[C@H](CCCNC(=N)N)N(C)C(=O)[C@@H](Cc2ccccc2)NC(=O)[C@H](Cc2c[nH]cn2)N(C)C1=O [^177Lu-labeled CCZ01099, metal not drawn]
